Consider 1 compound from publication PMC6934184, “Selective DNA-PKcs inhibition extends the therapeutic index of localized radiotherapy and chemotherapy” (The Journal of Clinical Investigation, 2019).

SMILES strings stand for the structures.

The target of the assay is T1, MAPK13 (p38 delta) (Homo sapiens, UniProt O15264).
T1 construct: purchased Thermo Fisher Scientific (Life Technologies) SelectScreen
In words: SelectScreen Z'LYTE. Type of assay: biochemical. The essentials: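 Percent values come from Thermo SelectScreen profiling of NU5455, combining activity and binding assays. CSF1R was run in Z'LYTE format at Km app ATP, and CAMK1 in Adapta format with ATP listed at 10.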

T1 sequence (O15264 whole entry): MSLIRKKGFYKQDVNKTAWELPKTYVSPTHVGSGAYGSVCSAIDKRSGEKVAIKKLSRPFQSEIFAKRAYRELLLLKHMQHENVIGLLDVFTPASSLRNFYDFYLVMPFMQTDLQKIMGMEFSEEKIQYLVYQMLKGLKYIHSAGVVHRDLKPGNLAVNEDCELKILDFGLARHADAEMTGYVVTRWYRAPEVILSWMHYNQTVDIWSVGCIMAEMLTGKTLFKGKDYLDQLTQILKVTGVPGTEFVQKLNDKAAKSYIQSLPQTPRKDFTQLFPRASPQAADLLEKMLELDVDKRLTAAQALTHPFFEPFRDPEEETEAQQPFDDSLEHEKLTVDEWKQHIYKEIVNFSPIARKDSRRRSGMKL

One may read the inhibition as the percentage by which the read-out fell short of the control. High values mean a strong effect, low ones a weak effect. Compound `CN(C(=O)CN1CCOCC1)c1ccc2sc3c(-c4cccc5c(=O)cc(N6CC7CCC(C6)O7)oc45)cccc3c2c1` [NU5455] yielded an inhibition at 1 µM of 5.8%.
